The values below come from patent US20260159533A1, “INHIBITORS OF COMPLEMENT FACTORS AND USES THEREOF” (Annexon, Inc., priority 2022, published 2026).

Where a name gives a salt, the structure may show the parent alone.

The test deals with T1, human C1s protein (Homo sapiens, UniProt P09871).
T1 construct: purchased R&D Systems or Complement Technologies 2060-SE or A104
T1 sequence (P09871 16-688): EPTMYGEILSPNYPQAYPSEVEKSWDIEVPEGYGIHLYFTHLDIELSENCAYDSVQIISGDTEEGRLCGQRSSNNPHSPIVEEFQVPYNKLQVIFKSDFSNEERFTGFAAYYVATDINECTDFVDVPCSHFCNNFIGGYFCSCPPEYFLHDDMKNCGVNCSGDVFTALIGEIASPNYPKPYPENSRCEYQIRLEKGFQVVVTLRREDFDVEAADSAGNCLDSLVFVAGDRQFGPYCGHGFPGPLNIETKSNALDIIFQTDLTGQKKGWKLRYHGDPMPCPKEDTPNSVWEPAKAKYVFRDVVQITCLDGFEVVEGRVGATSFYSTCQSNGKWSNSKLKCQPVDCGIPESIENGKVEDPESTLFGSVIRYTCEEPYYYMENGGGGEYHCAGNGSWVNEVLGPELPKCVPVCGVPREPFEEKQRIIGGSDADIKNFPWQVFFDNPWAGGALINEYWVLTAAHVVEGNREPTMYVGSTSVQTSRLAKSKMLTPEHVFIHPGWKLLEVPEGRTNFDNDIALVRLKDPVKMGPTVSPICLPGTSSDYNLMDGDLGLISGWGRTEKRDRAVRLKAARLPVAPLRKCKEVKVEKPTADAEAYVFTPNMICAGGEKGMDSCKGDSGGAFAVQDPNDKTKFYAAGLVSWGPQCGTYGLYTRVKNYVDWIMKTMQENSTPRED
As to the kind of experiment: recombinant C1s enzymatic assay (YLGR-Rh110-dPro substrate hydrolysis, fluorescence). The settings on record: recombinant human C1s 2.5 nM, substrate YLGR-Rh110-dPro 20 μM, 15 min pre-incubation, 60 min RT; read-out: rec. hC11s pIC50 (converted). It is filed as biochemical. Here is the method:
Compound testing in the purified or recombinant C1s enzymatic assay C1s is a serine protease; its enzymatic activity is measured in vitro by the hydrolysis of the synthetic substrate YLGR-Rh110-dPro (Kerr F K, O'Brien G, Quinsey N S, Whisstock J C, Boyd S, de la Banda M G, Kaiserman D, Matthews A Y, Bird P I, Pike R N. Elucidation of the substrate specificity of the Cis protease of the classical complement pathway. J. Biol. Chem. (2005) 280, 39510-39514). The enzyme cleaves the substrate with the release of Rh110 which is highly fluorescent. Cis inhibitors prevent the hydrolysis of the substrate thus resulting in a decrease of the signal.
The recombinant C1s enzymatic assay is performed using the human C1s protein (R&D Systems, 2060-SE or Complement Technologies, A104). The assay buffer composition is: 50 mM HEPES pH 7.5 (Sigma, H3375), 150 mM NaCl (Sigma, S7653), 0.2% PEG 8000 (VWR, AA43443-22), 0.01% Pluronic F127 (Sigma, P2243). On the day of the experiment 0.1 mg/mL BSA (Sigma, B4287) is added fresh to the buffer. The test item stock solutions are serially diluted 1:3 or 1:4 or 1:5 with DMSO, 11-point curves, in a 384-well compound plate. Nafamostat concentration curve is always included in the assay plate as a reference control.
The assay plate is prepared by dispensing 0.25 μL from compound plate into a 384-well black assay plate (assay plate, Greiner Fluotrac 200, 781076, VWR 736-0140). The high controls are prepared dispensing in 0.25 μL DMSO in column 23, rows AH or AP and low controls with 0.25 μL of 0.1 μM Nafamostat. Cis solution is prepared as 2× of the 2.5 nM final assay concentration. The YLGR-Rh110-dPro substrate is prepared as 2× of the final assay concentration of 20 μM. 5 μL/well of 2× enzyme solution is dispensed and pre-incubated for 15 min with the compounds. The enzymatic reaction is the started with 5 μL/well of the 2× substrate solution. The plate is incubated for 60 min RT in the dark and fluorescence is measured (ex 485/em 535 nm) using an Envision (PerkinElmer) or an equivalent instrument.
For `Nc1cnnc2cc(-c3cc(B(O)O)ccc3-c3ncco3)ccc12` [Example 25, [3-(4-aminocinnolin-7-yl)-4-(1,3-oxazol-2-yl)phenyl]boronic acid formic acid salt], the IC50 was 0.912 nM.

Take `Nc1cnnc2cc(-c3cc(B(O)O)ccc3-n3ncnn3)ccc12` [Example 12, [3-(4-aminocinnolin-7-yl)-4-(2H-1,2,3,4-tetrazol-2-yl)phenyl]boronic acid]: the IC50 is 0.589 nM.

As to `Nc1cnnc2cc(-c3cc(B(O)O)ccc3-c3nccs3)ccc12` [Example 24, [3-(4-aminocinnolin-7-yl)-4-(1,3-thiazol-2-yl)phenyl]boronic acid formic acid salt], the IC50 is 2.57 nM.

Regarding `COc1cc(-c2ncc(C)s2)c(-c2ccc3c(N)cnnc3c2)cc1B(O)O` [Example 50, [5-(4-aminocinnolin-7-yl)-2-Methoxy-4-(5-methylthiazol-2-yl)phenyl]boronic acid formic acid salt], the IC50 was 1.17 nM.

As for `COc1cc(-c2ncc[nH]2)c(-c2ccc3c(N)cnnc3c2)cc1B(O)O` [Example 46, [5-(4-aminocinnolin-7-yl)-4-(1H-imidazol-2-yl)-2-methoxy-phenyl]boronic acid], the IC50 is 3.89 nM.

Consider `COc1cnc(-c2cc(OC)c(B(O)O)cc2-c2ccc3c(N)cnnc3c2)s1` [Example 68, [5-(4-aminocinnolin-7-yl)-2-methoxy-4-(5-methoxy-1,3-thiazol-2-yl)phenyl]boronic acid formic acid salt], for which the IC50 is 0.692 nM.

Regarding `COc1cc(-c2cn[nH]c2)c(-c2ccc3c(N)cnnc3c2)cc1B(O)O` [Example 54, [5-(4-aminocinnolin-7-yl)-2-methoxy-4-(1H-pyrazol-4-yl)phenyl]boronic acid], the IC50 was 6.31 nM.

As for `Nc1cnnc2cc(-c3cc(B(O)O)c(OC(F)F)cc3-n3cccn3)ccc12` [Example 27, [5-(4-aminocinnolin-7-yl)-2-(difluoromethoxy)-4-(1H-pyrazol-1-yl)phenyl]boronic acid formic acid salt], the IC50 is 4.47 nM.

In the case of `CCOc1cc(-n2cccn2)c(-c2ccc3c(N)cnnc3c2)cc1B(O)O` [Example 82, [5-(4-aminocinnolin-7-yl)-2-ethoxy-4-pyrazol-1-yl-phenyl]boronic acid], the IC50 is 1.23 nM.

`N#Cc1ccn(-c2ccc(B(O)O)cc2-c2ccc3c(N)cnnc3c2)n1` [Example 17, [3-(4-aminocinnolin-7-yl)-4-(3-cyano-1H-pyrazol-1-yl)phenyl]boronic acid]: the IC50 is 6.31 nM.

As for `COc1cc(B(O)O)cc(-c2ccc3c(N)cnnc3c2)c1-n1cc(C(F)F)cn1` [Example 30, [3-(4-aminocinnolin-7-yl)-4-[4-(difluoromethyl)-1H-pyrazol-1-yl]-5-methoxyphenyl]boronic acid formic acid salt], the IC50 is 2.24 nM.

As to `COc1cnn(-c2cc(OC)c(B(O)O)cc2-c2ccc3c(N)cnnc3c2)c1` [Example 37, [5-(4-aminocinnolin-7-yl)-2-methoxy-4-(4-methoxypyrazol-1-yl)phenyl]boronic acid formic acid salt], the IC50 is 0.912 nM.

With `COc1cc(-n2cccn2)c(-c2ccc3c(N)nccc3c2)cc1B(O)O` [Example 48, [5-(1-amino-6-isoquinolyl)-2-methoxy-4-pyrazol-1-yl-phenyl]boronic acid formic acid salt], the IC50 was 3.89 nM.

Turning to `COc1cc(-c2cc[nH]n2)c(-c2ccc3c(N)cnnc3c2)cc1B(O)O` [Example 36, [5-(4-aminocinnolin-7-yl)-2-methoxy-4-(1H-pyrazol-3-yl)phenyl]boronic acid formic acid salt], the IC50 is 1.29 nM.

Consider `CS(=O)(=O)Nc1cnn(-c2ccc(B(O)O)cc2-c2ccc3c(N)cnnc3c2)c1` [Example 21, [3-(4-aminocinnolin-7-yl)-4-(4-methanesulfonamido-1H-pyrazol-1-yl)phenyl]boronic acid], for which the IC50 was 1.86 nM.
